# Test results from EP0624368A2, “Use of a composition for stimulating the synthesis of glutathione in the manufacture of a medicament for the treatment of acquired immune deficiency syndrome” (priority 1993, dated 1994).
# Legend:
# HIV-1 (strain IIIB) [1] = assay: MTT assay of protection against acute HIV infection in MT-2 cells; assay type: cell-based; details: 100 IU/well HIV; for OD readings at 540 nm (MTT assay): MT-2, Day 6 cultures
# From the text: (§1) Three cell culture systems were used in this study: H-9 cells; MT-2 cells; and normal human peripheral blood mononuclear cells (PBMC). H-9 cells were obtained from Advanced Biotechnology Inc. (ABI). MT-2 cells were obtained from Dr. J. Armstrong of the University of Pittsburgh. MT-2 cells are HTLV-I transformed human T lymphocytes and continuously produce HTLV-I virions. PBMC were obtained from healthy donors, purified by Ficol-Hypaque, and stimulated with PHA mitogen before being used in the efficacy studies. The initial stock of HIV-1 (strain IIIB) used in this study was obtained from ABI and the working stocks were produced.
# (§2) Cells were collected, put into tissue culture plates and incubated with different concentrations of drugs in RPMI 1640 tissue culture medium for 20 minutes prior to HIV challenge. Infection was carried out by inoculating 20-100 HIV infectious units (IU)/well inoculum without removing the drugs. The untreated cells exposed to HIV challenge served as positive controls. The normal untreated uninfected cells served as negative controls.
# (§3) Both the MTT assay and HIV p24 ELISA were used for evaluation of drug efficacies with MT-2 cells. The MTT assay is based upon the metabolic reduction of the MTT tetrazolium bromide dye in live cells. The OD readings (at 540 nm) obtained from the MTT assay are inversely correlated to the levels of cell mortality due to HIV infection or the cytotoxic effect of drugs. […] The HIV p24 antigen assay measures the level of HIV antigen present in the sample (i.e., culture supernatant).
# (§4) When evaluating the efficacies of drugs in H-9 cells and PBMC systems, only HIV p24 assays were used. To calculate the ED₅₀ values, a second order linear regression was applied on the logarithm of the tested doses of different drugs against the OD readings obtained from either MTT assays or HIV p24 assays.
# H-9 cells = assay: Toxicity study (median lethal dose) in H-9 cells; assay type: cell-based
# Procedure: (§5) The median lethal doses (LD₅₀) of single treatment of Procysteine® were 5 mM with PBMC, 21 mM with H-9 cells, and 31 mM with MT-2 cells. […] Therefore, both 25 mM or 50 mM of Procysteine® could have caused significant cell mortality in the test cell systems. […] To avoid the misinterpretation of drug antiviral efficacy due to toxicity, an alternative design using lower concentrations of Procysteine® in the combination treatment was performed. […] The HIV p24 assays were performed for analysis.
# HIV-1 (strain IIIB) [2] = assay: HIV p24 antigen assay in MT-2 cells (single and combination treatment); assay type: cell-based; details: 20 IU/well HIV; for OD readings at 450 nm (HIV p24 antigen): MT-2
# From the text: as §1, §2, §3, §4
# (§6) Cells were collected, put into tissue culture plates and incubated with different combinations of drugs for 20 minutes prior to HIV infection in the combined treatment studies. Infection was carried out by inoculating 20-100 HIV IU/well inoculum without removing the drugs. The inocula were the same as the ones used in the single drug treatment to obtain the ED₅₀ values. Both MTT assays and HIV p24 antigen assays were used in evaluation of drug effects in MT-2 cells but only HIV p24 antigen assays were used for H-9 cells or PBMC.
# (§7) Therefore, if the CI is less than 1, it indicates synergism among the tested drugs. Similarly, if the CI is equal to 1, the effects are additive, while a CI value greater than 1 is indicative of an antagonistic effect.
# MT-2 cells = assay: Toxicity study (median lethal dose) in MT-2 cells; assay type: cell-based, human
# Procedure: as §5
# HIV-1 (strain IIIB) [3] = assay: HIV p24 antigen assay in PBMC (single and combination treatment); assay type: cell-based; details: 50 IU/well HIV
# From the text: as §1, §2, §4, §6, §7
# PBMC = assay: Toxicity study (median lethal dose) in PBMC; assay type: cell-based, human
# Procedure: as §5
# HIV-1 (strain IIIB) [4] = assay: HIV p24 antigen assay in H-9 cells (single and combination treatment); assay type: cell-based; details: 80 IU/well HIV; for OD readings at 450 nm (HIV p24 antigen): H-9
# From the text: as §1, §2, §4, §6, §7
# H-9, MT-2, and PBMC = assay: Toxicity study (median lethal dose), all three cell systems together; assay type: cell-based; details: range over the cell systems studied in this protocol
# Procedure: as §5
structure (smiles),measurement,setting,value
O=C1N[C@H](C(=O)O)CS1 [Procysteine®],OD readings at 540 nm (MTT assay),HIV-1 (strain IIIB) [1]; 0.023 mM,0.392
same,OD readings at 540 nm (MTT assay),HIV-1 (strain IIIB) [1]; 0.23 mM,0.265
same,OD readings at 540 nm (MTT assay),HIV-1 (strain IIIB) [1]; 0.93 mM,0.283
same,OD readings at 540 nm (MTT assay),HIV-1 (strain IIIB) [1]; 3.75 mM,0.270
same,OD readings at 540 nm (MTT assay),HIV-1 (strain IIIB) [1]; 15 mM,0.308
same,OD readings at 540 nm (MTT assay),HIV-1 (strain IIIB) [1]; 60 mM,0.350
same,Calculated single treatment ED50,"HIV-1 (strain IIIB) [1]; MT-2 cells, MTT assay",2.3e+13 mM
same,median lethal doses (LD50),H-9 cells; single treatment,21 mM
same,LD50 value,H-9 cells; with 1 µM of AZT,30 mM
same,OD readings at 450 nm (HIV p24 antigen),HIV-1 (strain IIIB) [2]; 0.023 mM,3.269
same,OD readings at 450 nm (HIV p24 antigen),HIV-1 (strain IIIB) [2]; 0.23 mM,3.712
same,OD readings at 450 nm (HIV p24 antigen),HIV-1 (strain IIIB) [2]; 0.93 mM,3.762
same,OD readings at 450 nm (HIV p24 antigen),HIV-1 (strain IIIB) [2]; 3.75 mM,3.649
same,OD readings at 450 nm (HIV p24 antigen),HIV-1 (strain IIIB) [2]; 15 mM,2.825
same,OD readings at 450 nm (HIV p24 antigen),HIV-1 (strain IIIB) [2]; 60 mM,1.675
same,Calculated single treatment ED50,"HIV-1 (strain IIIB) [2]; MT-2 cells, p24 assay",1613 mM
same,LD50 value,MT-2 cells; as quoted in the discussion of ddI combination treatment,31 to 32 mM
same,median lethal doses (LD50),MT-2 cells; single treatment,31 mM
same,LD50 value,MT-2 cells; with 1 µM of AZT,36 mM
same,OD readings at 450 nm (HIV p24 antigen),HIV-1 (strain IIIB) [3]; 0.023 mM,3.703
same,OD readings at 450 nm (HIV p24 antigen),HIV-1 (strain IIIB) [3]; 0.23 mM,3.057
same,OD readings at 450 nm (HIV p24 antigen),HIV-1 (strain IIIB) [3]; 0.93 mM,2.951
same,OD readings at 450 nm (HIV p24 antigen),HIV-1 (strain IIIB) [3]; 3.75 mM,3.640
same,OD readings at 450 nm (HIV p24 antigen),HIV-1 (strain IIIB) [3]; 15 mM,3.284
same,OD readings at 450 nm (HIV p24 antigen),HIV-1 (strain IIIB) [3]; 60 mM,1.141
same,Calculated single treatment ED50,HIV-1 (strain IIIB) [3]; p24 assay,378 mM
same,median lethal doses (LD50),PBMC; single treatment,5 mM
same,LD50 value,PBMC; with 1 µM of AZT,8.3 mM
same,OD readings at 450 nm (HIV p24 antigen),HIV-1 (strain IIIB) [4]; 0.023 mM,4.133
same,OD readings at 450 nm (HIV p24 antigen),HIV-1 (strain IIIB) [4]; 0.23 mM,4.133
same,OD readings at 450 nm (HIV p24 antigen),HIV-1 (strain IIIB) [4]; 0.93 mM,4.133
same,OD readings at 450 nm (HIV p24 antigen),HIV-1 (strain IIIB) [4]; 3.75 mM,4.133
same,OD readings at 450 nm (HIV p24 antigen),HIV-1 (strain IIIB) [4]; 15 mM,4.099
same,OD readings at 450 nm (HIV p24 antigen),HIV-1 (strain IIIB) [4]; 60 mM,0.767
same,Calculated single treatment ED50,"HIV-1 (strain IIIB) [4]; H-9 cells, p24 assay",653 mM
same,median lethal doses (LD50),"H-9, MT-2, and PBMC",5 to 30 mM
